Values quoted from earlier work as cited in patent publication US20230405095A1, “DOSING REGIMEN” (VIIV HEALTHCARE UK (NO. 7) LIMITED, priority 2022, published 2023).

B1: rHuPH20: soluble hyaluronidase composition produced upon expression in a mammalian cell of nucleic acid encoding residues 36-482 of SEQ ID NO:1 (protein, listed as Homo sapiens)
chain: LNFRAPPVIPNVPFLWAWNAPSEFCLGKFDEPLDMSLFSFIGSPRINATGQGVTIFYVDRLGYYPYIDSITGVTVNGGIPQKISLQDHLDKAKKDITFYMPVDNLGMAVIDWEEWRPTWARNWKPKDVYKNRSIELVQQQNVQLSLTEATEKAKQEFEKAGKDFLVETIKLGKLLRPNHLWGYYLFPDCYNHHYKKPGYNGSCFNVEIKRNDDLSWLWNESTALYPSIYLNTQQSPVAATLYVRNRVREAIRVSKIPDAKSPLPVFAYTRIVFTDQVLKFLSQDELVYTFGETVALGASGIVIWGTLSIMRSMKSCLLLDNYMETILNPYIINVTLAAKMCSQVLCQEQGVCIRKNWNSSDYLHLNPDNFAIQLEKGGKFTVRGKPTLEDLEQFSEKFYCSCYSTLSCKEKADVKDTDAVDVCIADGVCIDAFLKPPMETEEPQIFY
modifications: precursor human PH20

Assays:
[1] = after injection of hyaluronidase; cited from earlier work
[2] = in vivo, sc; cited from earlier work

| Molecule | time until permeability barrier is restored to pre-injection levels [1] [h] | subcutaneous doses shown to be well tolerated [2] |
| --- | --- | --- |
| hyaluronidase | 24 to 48 | – |
| B1 | – | up to 96,000 U |
